Assay in all cases: inhibition of tumour cell growth, NCI panel, 48 h
Test [1] concerns M14.
Test [2] concerns KM12.
Test [3] relates to OVCAR-8.
The test system of test [4] is HT-29.
In test [5] the test system is NCI-H460.
Test [6] relates to UACC-62.
For test [7], the system named is OVCAR-3.
Test [8] concerns HCT-15.
Test [9] concerns SW-620.
Test [10] relates to HCC 2998.
Test [11] relates to EKVX.
The test system of test [12] is A498.
Test [13] deals with HCT-116.
Test [14] relates to NCI-H522.
For test [15], the system named is A549.
The subject of test [16] is SF-295.
For test [17], the system named is Hs-578T.
For test [18], the system named is MDA-N.
The test system of test [19] is PC-3.

Molecules are shown by their SMILES.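 Test compounds were applied to cells in 96-well plates for 48 hours at 5 doses. Here, GI50 denotes the concentration required for 50% inhibition of growth.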 The source made the active and inactive calls. No stated cut-off is given here; in the data, active = GI50 up to about 1.1 µM and inactive = higher.

As to `CN1C(c2ccccc2)CC(C)(O)CC1c1ccccc1` (stereo not drawn), the GI50 in test [1], in test [2], in test [3], in [4], in test [5] and in [6] was > 100 µM (inactive) throughout. In addition, the GI50 is > 100 µM (inactive) in [7]; over 100 µM in [8]; > 100 µM (inactive) in [9]; > 100 µM (inactive) in test [10]; > 100 µM (inactive) in test [11]; > 100 µM (inactive) in test [12]. Also, the GI50 in test [13], in test [14], in test [15] and in [16] was > 100 µM (inactive) in each case.

For the compound `CC(=O)OC(OC(C)=O)c1ncccc1C(=O)OC(C)C`, the GI50 was > 100 µM (inactive) in test [1]; 63.7 µM (inactive) in test [2]; > 100 µM (inactive) in [3]; 33.3 µM (inactive) in test [4]; 11.3 µM (inactive) in test [5]; > 100 µM (inactive) in test [6]. The GI50 in test [7] was > 100 µM (inactive); in test [8] it was 33.8 µM; in [9], > 100 µM (inactive); in [10], 42.6 µM (inactive); in test [11] it was > 100 µM (inactive); in test [12], > 100 µM (inactive). For the same compound, the GI50 in test [13] was 57.8 µM (inactive); in test [14] it was 75.7 µM (inactive); in test [15] it was > 100 µM (inactive); in test [16], 42.4 µM (inactive).

With `C/C=C1\CC2C(=O)CCC2C2c3ccccc3OC12` (stereo not drawn), the GI50 in test [1], in test [2], in [17], in test [3], in test [4] and in test [5] was > 100 µM (inactive) throughout. For the same compound, the GI50 in [6] is > 100 µM (inactive); in test [7], > 100 µM (inactive); in [8] it was over 100 µM; in test [9], > 100 µM (inactive); in test [11], > 100 µM (inactive); in test [18] it was 0.0718 µM (active). The GI50 in test [13], in test [14], in [19], in [15] and in test [16] was > 100 µM (inactive) each time.

Turning to `O=C(Nc1ccccc1)N(C1=NCC(CI)S1)c1ccc(F)c(F)c1` (stereo not drawn), the GI50 was 32.6 µM (inactive) in test [2]; 64 µM (inactive) in test [17]; 47.8 µM (inactive) in test [3]; 27 µM (inactive) in test [4]; 35.2 µM (inactive) in test [5]; 28.3 µM (inactive) in [7]. Besides, the GI50 in [8] is 28.1 µM; in [9], 28.2 µM (inactive); in test [10] it was 55.8 µM (inactive); in test [11], > 100 µM (inactive); in test [12], 24.9 µM (inactive); in test [18] it was 24.6 µM (inactive). Also, the GI50 in test [13] was 29.1 µM (inactive); in test [19] it was 25.4 µM (inactive); in test [15], 26.4 µM (inactive); in test [16], > 100 µM (inactive).

Consider `CN(C)CCCOC(=O)C(O)(Cc1ccccc1)C1CC1` (stereo not drawn), for which the GI50 in [1], in test [2], in [17], in test [3], in test [4] and in test [5] was > 100 µM (inactive) in each case. The GI50 is > 100 µM (inactive) in test [6]; > 100 µM (inactive) in test [7]; over 100 µM in test [8]; > 100 µM (inactive) in test [9]; > 100 µM (inactive) in test [10]; > 100 µM (inactive) in [11]. In addition, the GI50 in test [12], in test [18], in test [13], in [14], in test [19] and in [15] was > 100 µM (inactive) in each case. The GI50 in test [16] was > 100 µM (inactive).

As to `O=c1[nH]n(Cc2ccccn2)c2ccc([N+](=O)[O-])cc12`, the GI50 in [1], in [2], in [17], in [3], in [4] and in test [5] was > 100 µM (inactive) throughout. Besides, the GI50 is > 100 µM (inactive) in test [6]; > 100 µM (inactive) in [7]; over 100 µM in test [8]; > 100 µM (inactive) in test [9]; > 100 µM (inactive) in test [10]; > 100 µM (inactive) in test [11]. For the same compound, the GI50 in test [12], in test [18], in [13], in test [14], in [19] and in [15] was > 100 µM (inactive) each time.

Take `C/C(=N\N(C)C)c1sc(-n2nc(-c3ccccc3)cc2-c2ccccc2)nc1C`: the GI50 in [1], in test [2], in [3], in [4], in test [5] and in test [6] was > 100 µM (inactive) in each case. Moreover, the GI50 in test [7] was 47.9 µM (inactive); in test [8] it was over 100 µM; in [9], > 100 µM (inactive); in test [10], > 100 µM (inactive); in test [11], 8.22 µM (inactive); in test [12], > 100 µM (inactive). For the same compound, the GI50 was > 100 µM (inactive) in test [13], > 100 µM (inactive) in test [14], > 100 µM (inactive) in test [15] and 51.2 µM (inactive) in test [16].

Turning to `CCCCCCCCCCCCCCCCOCC(COP(=O)(O)OCC1OC(n2cc(CC)c(=O)[nH]c2=O)CC1O)OC(=O)CCCCCCCCCCCCCCC` (stereo not drawn), the GI50 in test [1], in [2], in [17], in test [3], in [4] and in [6] was > 100 µM (inactive) throughout. The GI50 in test [7] was > 100 µM (inactive); in test [8], over 100 µM; in [9], > 100 µM (inactive); in [10] it was > 100 µM (inactive); in test [11] it was > 100 µM (inactive); in test [12], > 100 µM (inactive). The GI50 in test [13], in [14], in test [19], in test [15] and in test [16] was > 100 µM (inactive) in each case.

Regarding `Cc1ccc(S(=O)(=O)NC(=O)NCCc2c[nH]cn2)cc1`, the GI50 in [1], in test [2], in [17], in test [3], in test [4] and in test [5] was > 100 µM (inactive) throughout. Besides, the GI50 in test [6] was > 100 µM (inactive); in test [7] it was > 100 µM (inactive); in test [8], over 100 µM; in [9], > 100 µM (inactive); in test [10] it was > 100 µM (inactive); in test [11], > 100 µM (inactive). The GI50 in test [12], in [13], in [14], in test [19], in test [15] and in test [16] was > 100 µM (inactive) throughout.

These data come from ChEMBL document CHEMBL1201862, “PubChem BioAssay data set” (2004).
